Where two headings read alike, the source gives them in different places.
What was measured:
[1] = tested on: NCI-H292 lung cancer cells; assay: FDA drug screening, complete media vs cholesterol-free media without statin (TABLE 1); assay type: cell-based, human
[2] = tested on: NCI-H292 lung cancer cells; assay: FDA drug screening, complete media vs cholesterol-free media with simvastatin (TABLE 2); assay type: cell-based, human
[3] = Complete minus Cholesterol-free, greater than 0 enhanced anti-cancer activity, about 0 neutral, below 0 antagonist
[4] = NCI-H292 cells, FDA drug library screen, cholesterol-free media without statin
[5] = NCI-H292 cells, FDA drug library screen, complete media
[6] = NCI-H292 cells, FDA drug library screen, cholesterol-free media with simvastatin 0.04 μM
[7] = complete media vs cholesterol-free media + simvastatin (0.04 μM), >0 enhanced anti-cancer activity, about 0 neutral, <0 antagonist
[8] = Complete minus Cholesterol-free, >0 enhanced anti-cancer activity, about 0 neutral, <0 antagonist
[9] = NCI-H292 cells, cholesterol-free media without statin
[10] = NCI-H292 cells, FDA library drug in cholesterol-free media with simvastatin 0.04 μM
[11] = NCI-H292 cells, FDA library drug in complete media
[12] = NCI-H292 cells, cholesterol-free media without statin, FDA drug library screen
[13] = NCI-H292 cells, complete media, FDA drug library screen
[14] = complete vs cholesterol-free media, >0 enhanced anti-cancer activity, about 0 neutral, <0 antagonist
[15] = complete vs cholesterol-free media, greater than 0 enhanced anti-cancer activity, about 0 neutral, below 0 antagonists
[16] = complete media minus cholesterol-free media + simvastatin, >0 enhanced anti-cancer activity, about 0 neutral, <0 antagonist
[17] = NCI-H292 cells, cholesterol-free media with simvastatin 0.04 μM, cell growth value in FDA drug screen
[18] = NCI-H292 cells, complete media, cell growth value in FDA drug screen

Atazanavir (sulfate)
Difference [1, 3]: −0.18
Cholesterol-free [1, 4]: 1.207
Complete [1, 5]: 1.022
Cholesterol-free media + simvastatin (0.04 μM) [2, 6]: 1.26
Complete Media [2, 5]: 1.128
Difference [2, 7]: −0.13

CC(C)(C)NCC(O)COc1cccc2c1CC(O)C(O)C2 (stereo not drawn) [Nadolol]
Difference [1, 8]: −0.30
Cholesterol-free [1, 9]: 1.37
Complete ([1]; NCI-H292 cells, complete media): 1.069
Cholesterol-free media + simvastatin (0.04 μM) [2, 10]: 1.308
Complete Media [2, 11]: 1.014
Difference [2, 7]: −0.29

CN(C/C=C/C#CC(C)(C)C)Cc1cccc2ccccc12 [Terbinafine]
Cholesterol-free [1, 12]: 1.229
Complete [1, 13]: 1.421
Difference [1, 14]: 0.19
Cholesterol-free media + simvastatin (0.04 μM) [2, 6]: 1.066
Complete Media [2, 5]: 0.9483
Difference [2, 7]: −0.12

C=C1CCN([C@H](C)[C@](O)(Cn2cncn2)c2ccc(F)cc2F)CC1 [Efinaconazole]
Cholesterol-free [1, 9]: 1.307
Complete ([1]; NCI-H292 cells, complete media): 0.8534
Difference [1, 15]: −0.45
Cholesterol-free media + simvastatin (0.04 μM) [2, 6]: 0.5953
Complete Media [2, 5]: 1.082
Difference [2, 16]: 0.49

Oxolamine (citrate)
Cholesterol-free [1]: 1.162
Complete [1]: 0.9128
Difference [1]: −0.25
Cholesterol-free media + simvastatin (0.04 μM) [2]: 0.8466
Complete Media [2]: 1.01
Difference [2]: 0.16

COc1cc2c(cc1Cc1cccc(Cl)c1F)c(=O)c(C(=O)O)cn2[C@H](CO)C(C)C [Elvitegravir]
Difference ([1]; Complete minus Cholesterol-free, greater than 0 enhanced anti-cancer activity, about 0 neutral, below 0 antagonists): −0.83
Cholesterol-free ([1]; NCI-H292 cells in cholesterol-free media without statin): 1.777
Complete ([1]; NCI-H292 cells in complete media): 0.9448
Cholesterol-free media + simvastatin (0.04 μM) [2, 6]: 1.032
Complete Media [2, 5]: 1.435
Difference [2, 16]: 0.40

COc1ccccc1OCCNCC(O)COc1cccc2[nH]c3ccccc3c12 (stereo not drawn) [Carvedilol]
Difference [1, 3]: −0.18
Cholesterol-free [1, 4]: 1.133
Complete [1, 5]: 0.9579
Cholesterol-free media + simvastatin (0.04 μM) [2, 10]: 1.448
Complete Media [2, 11]: 0.9665
Difference [2, 7]: −0.48

O=C(O)CSc1nnc(Br)n1-c1ccc(C2CC2)c2ccccc12 [Lesinurad (sodium)]
Cholesterol-free [1, 12]: 0.8857
Complete [1, 13]: 1.263
Difference [1, 14]: 0.38
Cholesterol-free media + simvastatin (0.04 μM) [2, 6]: 0.8519
Complete Media [2, 5]: 0.7365
Difference [2, 7]: −0.12

CCCCCCCCOc1ccccc1C(=O)Nc1ccc(C(=O)OCC[N+](C)(CC)CC)cc1.[Br-] [Otilonium (bromide)]
Cholesterol-free [1]: 1.132
Complete [1]: 0.8071
Difference [1]: −0.32
Cholesterol-free media + simvastatin (0.04 μM) [2]: 0.9764
Complete Media [2]: 1.024
Difference [2]: 0.05

CCCCCCOC(=O)N=C(N)c1ccc(NCc2nc3cc(C(=O)N(CCC(=O)OCC)c4ccccn4)ccc3n2C)cc1 [Dabigatran etexilate]
Difference [1, 3]: −0.09
Cholesterol-free [1, 4]: 0.9682
Complete [1, 5]: 0.8738
Cholesterol-free media + simvastatin (0.04 μM) [2, 17]: 0.8555
Complete Media [2, 18]: 0.8818
Difference [2, 16]: 0.03

Cc1onc(-c2ccccc2Cl)c1C(=O)N[C@@H]1C(=O)N2[C@@H]1SC(C)(C)[C@@H]2C(=O)O [Cloxacillin (sodium monohydrate)]
Difference [1, 8]: −0.19
Cholesterol-free [1, 9]: 1.114
Complete ([1]; NCI-H292 cells, complete media): 0.9266
Cholesterol-free media + simvastatin (0.04 μM) [2, 17]: 1.045
Complete Media [2, 18]: 1.18
Difference [2, 16]: 0.13

c1cc(CN2CCCNCCNCCCNCC2)ccc1CN1CCCNCCNCCCNCC1 [Plerixafor]
Cholesterol-free [1, 9]: 1.296
Complete ([1]; NCI-H292 cells, complete media): 0.935
Difference [1, 15]: −0.36
Cholesterol-free media + simvastatin (0.04 μM) [2, 6]: 1.17
Complete Media [2, 5]: 1.011
Difference [2, 7]: −0.16

Cc1ncc([N+](=O)[O-])n1C [Dimetridazole]
Cholesterol-free [1, 9]: 1.219
Complete ([1]; NCI-H292 cells, complete media): 0.8738
Difference [1, 15]: −0.35
Cholesterol-free media + simvastatin (0.04 μM) [2, 10]: 1.602
Complete Media [2, 11]: 0.8915
Difference [2, 7]: −0.71

NS(=O)(=O)c1cc2c(cc1Cl)NC(C(Cl)Cl)NS2(=O)=O (stereo not drawn) [Trichlormethiazide]
Cholesterol-free [1, 9]: 1.351
Complete ([1]; NCI-H292 cells, complete media): 0.9482
Difference [1, 15]: −0.40
Cholesterol-free media + simvastatin (0.04 μM) [2, 17]: 1.02
Complete Media [2, 18]: 1.045
Difference [2, 16]: 0.02

NCCC[C@H](NC(=O)[C@@H]1CCCN1C(=O)[C@@H]1CSSC[C@H](N)C(=O)N[C@@H](Cc2ccc(O)cc2)C(=O)N[C@@H](Cc2ccccc2)C(=O)N[C@@H](CCC(N)=O)C(=O)N[C@@H](CC(N)=O)C(=O)N1)C(=O)NCC(N)=O [Ornipressin]
Difference ([1]; Complete minus Cholesterol-free, […]): 0.03
Cholesterol-free [1, 12]: 1.024
Complete [1, 13]: 1.051
Cholesterol-free media + simvastatin (0.04 μM) [2, 10]: 1.553
Complete Media [2, 11]: 0.7895
Difference ([2]; complete media vs cholesterol-free media + simvastatin (0.04 μM), […]): −0.76

From patent US20250144067A1, “PERSONALIZED STARVATION THERAPY FOR CANCER” (Faeth Therapeutics, Inc., priority 2021, published 2025)
